According to paper PMC8126888 (RSC Medicinal Chemistry, 2020):
Read-outs that look alike come from different tables or passages of the source.

Tests used:
[1] = in vitro; conditions: human
[2] = tested on: primary peritoneal mouse macrophages (PMM); assay: cells; conditions: Macrophage
[3] = in vitro; conditions: human, HFF-1 cells
[4] = tested on: Leishmania infantum MHOM/MA(BE)/67/ITMAP263 intracellular amastigotes; assay: microbe, parasite or virus in culture; conditions: Macrophage, in Mus musculus
[5] = in vitro; conditions: human, HepG2 cells
[6] = tested on: Trypanosoma cruzi, Tulahuen CL2, beta-galactosidase strain; assay: microbe, parasite or virus in culture
[7] = in vitro; conditions: human, microsomes
[8] = in vitro; conditions: PAMPA
[9] = in vitro; conditions: mouse, microsomes
[10] = physchem
[11] = tested on: Leishmania infantum MHOM/MA(BE)/67/ITMAP263 intracellular amastigotes; conditions: intracellular amastigotes in PMM
[12] = read-out: L. Inf. pIC50, from L. infantum intracellular amastigote IC50 (converted)
[13] = read-out: L. infantum MHOM/MA(BE)/67/ITMAP263 intracellular amastigotes IC50 (uM), intracellular amastigotes
[14] = MRC5, read-out: T. cruzi Tulahuen C4 (LacZ) IC50 (uM)
[15] = pH 7.4, HLM CLint (uL/min/mg), human liver microsomes
[16] = pH 7.4, MLM CLint (uL/min/mg), mouse liver microsomes
[17] = read-out: PMM pIC50 (converted)
[18] = read-out: L. inf. pIC50, intracellular amastigotes in PMM (converted), geometric mean of a minimum of two experiments ± standard error
[19] = pH 7.4, Microsome Clint,u Human, Table 2, intrinsic in vitro clearance, liver microsomes
[20] = pH 7.4, Microsome Clint,u Mouse, Table 2, intrinsic in vitro clearance, liver microsomes
[21] = HPLC, Ascentis Express RP Amide column, pH 7.4, elog D, HPLC measured log D, pH 7.4
[22] = HPLC, Ascentis Express RP Amide column, pH 7.4, eLogD, experimental
[23] = read-out: L. infantum MHOM/MA(BE)/67/ITMAP263 intracellular amastigotes IC50, intracellular amastigotes
[24] = pH 7.4, HLM CLint, human liver microsomes
[25] = pH 7.4, MLM CLint, mouse liver microsomes
[26] = MRC5, read-out: T. cruzi Tulahuen C4 (LacZ) IC50

Structure (SMILES) | CC50 at 3 days [1] [µM] | IC50 ([2]; read-out: PMM IC50 (uM)) [µM] | CC50 [3] [µM] | IC50 [4, 12] [µM] | IC50 [4, 13] [µM] | CC50 [5] [µM] | IC50 [6, 14] [µM] | microsomal CLint at 0.5 μM [7, 15] [µL/min/mg] | Papp [8] [×10⁻⁶ cm/s] | microsomal CLint at 0.5 μM [9, 16] [µL/min/mg] | chromatographic logD [10, 22] | further results
O=S(=O)(c1cc(F)ccc1F)N(Cc1ccccc1)C(CO)c1ccc(F)cc1 (stereo not drawn) [DNDI0003378486] | 21.2 | > 64 | 1.67 | 35.5 | 35.5 | 24.4 | 13.7 | – | – | – | – | –
COc1ccc(C(=O)NC2COC2)cc1S(=O)(=O)N(Cc1ccc(F)cc1)Cc1ccc(F)cc1 [DNDI0003371174] | > 64 | > 64 | > 64 | 0.794 | 0.79 | > 64 | 38.5 | 178 | 4.92 | 395 | – | –
COc1ccc(CN(Cc2ccc(F)cc2)S(=O)(=O)c2cc(F)ccc2F)cc1 [DNDI0003388150] | > 64 | > 64 | > 64 | 57.5 | 57 | > 64 | 54.4 | – | – | – | – | –
COc1ccc(C#N)cc1S(=O)(=O)N(Cc1ccc(C(F)(F)F)nc1)Cc1ccc(C(F)(F)F)nc1 [Compound 50] | – | – | – | – | – | – | – | – | – | – | – | IC50 [2, 17]: > 64.6 µM; IC50 [4, 18]: 38.9 µM; microsomal CLint at 0.5 μM [7, 19]: < 23 µL/min/mg; microsomal CLint at 0.5 h, 0.5 µM [9, 20]: 95 µL/min/mg; chromatographic logD [10, 21]: 3.8; potency against L. inf. in words [11]: inactive
COc1ccc(OC)c(S(=O)(=O)N(Cc2ccc(F)cc2)Cc2ccnn2C)c1 [DNDI0003389129] | > 64 | 45.2 | 26.3 | 5.13 | 5.19 | > 64 | 21.1 | 207 | 35.6 | 1090 | – | –
COc1ccc(OC)c(S(=O)(=O)N(Cc2ccc(F)cc2)Cc2ccc(C#N)cc2)c1 [DNDI0003388088] | > 64 | > 64 | 51.9 | 18.6 | 18.6 | 36.2 | 19 | 87 | 3.57 | – | 4.1 | –
CNC(=O)c1ccc(OC)c(S(=O)(=O)N(CCOC)Cc2ccccc2)c1 [DNDI0003392128] | > 64 | > 64 | – | 28.2 | 28.1 | – | > 64 | 23 | 7.61 | 393 | 2.7 | –
COCCN(Cc1ccc(F)cc1)S(=O)(=O)c1cc(C(=O)N2CCOCC2)ccc1OC [DNDI0003392125] | 22.7 | > 64 | – | 22.4 | 22.5 | – | > 64 | 28 | 15.4 | 60 | – | –
COc1ccc(C#N)cc1S(=O)(=O)N(Cc1ccc(F)cc1)C1CCOCC1 [Compound 43] | – | – | – | – | – | – | – | – | – | – | – | IC50 [2, 17]: > 64.6 µM; IC50 [4, 18]: > 64.6 µM; microsomal CLint at 0.5 μM [7, 19]: 194 µL/min/mg; microsomal CLint at 0.5 μM [9, 20]: 253 µL/min/mg; chromatographic logD [10, 21]: 3.4; potency against L. inf. in words [11]: inactive
COCCN(Cc1ccccc1)S(=O)(=O)c1cc(C(=O)NC2COC2)ccc1OC [DNDI0003392129] | > 64 | > 64 | – | 15.5 | 15.5 | – | > 64 | 39 | 4.72 | 114 | 2.7 | –
O=S1(=O)c2cc(F)ccc2OCC(c2ccc(F)cc2)N1Cc1ccccc1 (stereo not drawn) [DNDI0003389122] | > 64 | 16 | 12.1 | 10.2 | 10.2 | > 64 | > 64 | – | – | – | 4.9 | –
O=S1(=O)c2cc(F)ccc2OC(c2ccc(F)cc2)CN1Cc1ccccc1 (stereo not drawn) [DNDI0003371160] | > 64 | – | – | 20.4 | – | – | – | – | – | – | 4.9 | IC50 ([2]; read-out: PMM IC50): > 64 µM; IC50 [4, 23]: 20.2 µM; microsomal CLint at 0.5 μM [7, 24]: 398 µL/min/mg; microsomal CLint at 0.5 μM [9, 25]: 323 µL/min/mg; IC50 [6, 26]: 7.97 µM
COc1ccc(CN(Cc2ccc(F)cc2)S(=O)(=O)c2cc(C#N)ccc2OC)cc1 [DNDI0003371172] | > 64 | > 64 | 22.6 | 2.95 | 2.92 | 35.3 | 13.2 | – | – | – | – | –
O=[N+]([O-])c1ccc(Cl)cc1S(=O)(=O)N(Cc1ccccc1)Cc1ccc(F)cc1 [DNDI0003389123] | > 64 | > 64 | > 64 | > 64 | > 64 | > 64 | 26.4 | – | – | – | 5.1 | –
N#Cc1ccccc1S(=O)(=O)N(Cc1ccccc1)Cc1ccccc1 [DNDI0003389641] | > 64 | > 64 | 1.28 | 11.2 | 11.3 | > 64 | 18.4 | 577 | 1.66 | – | 4.2 | –
COc1ncc(Br)cc1S(=O)(=O)N(Cc1ccc(F)cc1)Cc1ccc(F)cc1 [DNDI0003369122] | > 64 | – | – | 14.8 | – | – | – | – | – | – | 5.2 | IC50 ([2]; read-out: PMM IC50): > 64 µM; IC50 [4, 23]: 14.8 µM; microsomal CLint at 0.5 μM [7, 24]: 95 µL/min/mg; microsomal CLint at 0.5 μM [9, 25]: 469 µL/min/mg; IC50 [6, 26]: 7.43 µM
CCN(Cc1ccccc1)S(=O)(=O)c1cc(OC)ccc1OC [Compound 38] | – | – | – | – | – | – | – | – | – | – | – | IC50 [2, 17]: > 64.6 µM; IC50 [4, 18]: 2.09 µM; microsomal CLint at 0.5 μM [7, 19]: 534 µL/min/mg; microsomal CLint at 0.5 μM [9, 20]: 3500 µL/min/mg; chromatographic logD [10, 21]: 3.8; chromatographic logD ([10]; pH 7.4, elog D, HPLC measured log D, pH 7.4): 3.5; L. inf. pIC50 ([11]; geometric mean of a minimum of two experiments ± standard error): 5.60 ± 0.03
COc1ccc(CN(Cc2ccc(F)cc2)S(=O)(=O)c2cc(OC)ccc2OC)cc1 [DNDI0003388087] | 5.42 | > 64 | 2.44 | 11.2 | 11.3 | 33.2 | 9.04 | 80 | – | 19 | 3.5 | –
COc1ccc(OC)c(S(=O)(=O)N(Cc2ccccc2)C2CCCNC2)c1 (stereo not drawn) [DNDI0003366131] | 58.5 | – | – | 29.5 | – | – | – | – | – | – | 3.2 | IC50 ([2]; read-out: PMM IC50): > 64 µM; IC50 [4, 23]: 29.5 µM; microsomal CLint at 0.5 μM [7, 24]: 347 µL/min/mg; microsomal CLint at 0.5 μM [9, 25]: 96 µL/min/mg; IC50 [6, 26]: 31.6 µM
